In US20160016951A1 (Merck Patent GmbH, priority 2014, published 2016):

The molecules below were run against T1, CDK8 (CDK8/CycC) (Homo sapiens, UniProt P49336) (assay: FRET based Lanthascreen binding competition assay). Settings: 5 nM CDK8/CycC, 10 nM Alexa647-Tracer, 1% DMSO, 60 min at RT; read-out: IC50 CDK8 binding.
T1 construct: purchased Invitrogen PV4402
T1 sequence (P49336 whole entry): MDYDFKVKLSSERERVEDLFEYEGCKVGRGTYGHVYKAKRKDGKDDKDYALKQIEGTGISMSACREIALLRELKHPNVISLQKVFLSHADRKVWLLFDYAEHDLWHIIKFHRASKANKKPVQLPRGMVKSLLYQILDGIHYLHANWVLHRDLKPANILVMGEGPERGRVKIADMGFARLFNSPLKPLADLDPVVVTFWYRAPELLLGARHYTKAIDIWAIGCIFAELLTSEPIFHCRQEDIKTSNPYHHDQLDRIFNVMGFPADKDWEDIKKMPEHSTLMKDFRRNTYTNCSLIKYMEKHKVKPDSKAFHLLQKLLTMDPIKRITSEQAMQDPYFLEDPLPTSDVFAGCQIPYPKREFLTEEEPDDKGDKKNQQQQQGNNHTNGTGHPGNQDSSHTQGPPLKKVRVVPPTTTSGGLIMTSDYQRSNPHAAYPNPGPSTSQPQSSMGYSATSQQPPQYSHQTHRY
T1 sequence (P24863 whole entry partner): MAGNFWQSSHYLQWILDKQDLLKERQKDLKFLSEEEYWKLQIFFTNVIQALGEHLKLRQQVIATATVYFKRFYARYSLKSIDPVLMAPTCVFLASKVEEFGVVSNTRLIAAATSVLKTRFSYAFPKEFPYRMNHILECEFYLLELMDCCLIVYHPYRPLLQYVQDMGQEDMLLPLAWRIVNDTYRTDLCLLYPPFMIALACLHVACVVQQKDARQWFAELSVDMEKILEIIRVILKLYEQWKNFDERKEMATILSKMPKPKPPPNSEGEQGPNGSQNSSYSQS
Description: FRET based Lanthascreen binding competition assay: A dye-labeled ATP competitive probe served as a FRET acceptor upon binding to CDK8 labeled with a strepavidin —Eu-chelate (via abiotinylated anti His antibody). […] In case this probe was competed by an inhibitor as such a signal cannot be generated any more. The CDK8 used for this assay was a protein co-expressed with CycC.
The assay procedure for an assay in a 1536 well plate was performed according to the following: 2 μL CDK8/biotin-anti-His Ab/SA-Eu mix in Assay buffer were pipetted into the wells of a micro plate.
1 μL compound in 20 mM Hepes buffer/5% DMSO was added. The plate was shaken for 30 sec and incubated for 20 min at RT. 2 μL Alexa647-probe in assay buffer were added. The plate was shaken for 30 sec again and incubated for 60 min at RT in the dark. Then the plate was read out on a Perkin Elmer Envision (mode LANCE/TRF, excitation 340 nm emission 650 nm).
Work on `CC1CCC(=O)N1c1ccc2cncc(-c3ccc(-c4cnn(C)c4)cc3)c2c1` (stereo not shown) [Compound 114, 5-Methyl-1-{4-[4-(1-methyl-1H-pyrazol-4-yl)-phenyl]-isoquinolin-6-yl}-pyrrolidin-2-one] yielded an IC50 of 0.01 to 0.1 µM. `Cn1cc(-c2ccc(-c3cnc(N)c4ccc(C(=O)N5CCC(F)(F)C5)cc34)cc2)cn1` [Compound 196, (1-amino-4-(4-(1-methyl-1H-pyrazol-4-yl)phenyl)isoquinolin-6-yl)(3,3-difluoropyrrolidin-1-yl)methanone] showed an IC50 of 0.01 to 0.1 µM. Work on `Cc1nc(-c2ccc(-c3cncc4ccc(C(=O)N5CC(F)(F)C5)cc34)cc2)cn1C` [Compound 175, (3,3-Difluoro-azetidin-1-yl)-{4-[4-(1,2-dimethyl-1H-imidazol-4-yl)-phenyl]-isoquinolin-6-yl}-methanone] yielded an IC50 of 0.01 to 0.1 µM. `CNC(=O)c1ccc2c(O)ncc(-c3ccc4c(c3)CS(=O)(=O)N4)c2n1` [Compound 63, 8-(2,2-dioxido-1,3-dihydrobenzo[c]isothiazol-5-yl)-5-hydroxy-N-methyl-1,6-naphthyridine-2-carboxamide] showed an IC50 of 0.101 to 0.5 µM. In the case of `Cc1cnc(N)c2ccc(C(=O)N3CCC[C@H]3c3ccc(Cl)cc3)nc12` [Compound 88, (S)-(5-amino-8-methyl-1,6-naphthyridin-2-yl)(2-(4-chlorophenyl)pyrrolidin-1-yl)methanone], the IC50 is reported as 0.01 to 0.1 µM. Molecule `CN1c2ccc(-c3cncc4ccc(-c5ncco5)cc34)cc2CS1(=O)=O` [Compound 107, 1-methyl-5-(6-(oxazol-2-yl)isoquinolin-4-yl)-1,3-dihydrobenzo[c]isothiazole 2,2-dioxide] has an IC50 of 0.01 to 0.1 µM. For `CNC(=O)c1ccc2cncc(-c3ccc4c(c3)N(C)C(=O)C4)c2n1` [Compound 15, 8-(1-methyl-2-oxo-2,3-dihydro-1H-indol-6-yl)-[1,6]naphthyridine-2-carboxylic acid methylamide], the IC50 was less than 0.01 µM. For `Cn1cc(-c2ccc(-c3cncc4ccc(N5CCCCS5(=O)=O)cc34)cc2)cn1` [Compound 110, 6-(1,1-Dioxo-[1,2]thiazinan-2-yl)-4-[4-(1-methyl-1H-pyrazol-4-yl)-phenyl]-isoquinoline], the IC50 was 0.01 to 0.1 µM. With `COC1CN(C(=O)c2ccc3cncc(-c4ccc(-c5cnn(C(C)C)c5)cc4)c3n2)C1` [Compound 153, (8-(4-(1-isopropyl-1H-pyrazol-4-yl)phenyl)-1,6-naphthyridin-2-yl)(3-methoxyazetidin-1-yl)methanone] the IC50 was less than 0.01 µM. `CN1C(=O)CCc2cc(-c3cnc(N)c4ccc(C(=O)N5CC(F)(F)C5)cc34)ccc21` [Compound 172, 6-[1-Amino-6-(3,3-difluoro-azetidine-1-carbonyl)-isoquinolin-4-yl]-1-methyl-3,4-dihydro-1H-quinolin-2-one] gave an IC50 of 0.101 to 0.5 µM. With `COC1CN(C(=O)c2ccc3cncc(-c4ccc5nn(CC(C)(C)O)cc5c4)c3n2)C1` [Compound 33, (8-(2-(2-hydroxy-2-methylpropyl)-2H-indazol-5-yl)-1,6-naphthyridin-2-yl)(3-methoxyazetidin-1-yl)methanone] the IC50 was less than 0.01 µM. With `COC1CN(C(=O)c2ccc3cncc(-c4ccc5c(c4)N(C)C(=O)C5)c3c2)C1` [Compound 165, 6-[6-(3-Methoxy-azetidine-1-carbonyl)-isoquinolin-4-yl]-1-methyl-1,3-dihydro-indol-2-one] the IC50 was less than 0.01 µM. Work on `CNc1ccc2cncc(-c3ccc(-c4cnn(C)c4)cc3)c2n1` [Compound 56, N-methyl-8-(4-(1-methyl-1H-pyrazol-4-yl)phenyl)-1,6-naphthyridin-2-amine] yielded an IC50 of 0.101 to 0.5 µM. Work on `CC(=O)N1CCN(c2ccc3cncc(-c4ccc(-c5cnn(C)c5)cc4)c3c2)CC1` [Compound 125, 1-(4-{4-[4-(1-Methyl-1H-pyrazol-4-yl)-phenyl]-isoquinolin-6-yl}-piperazin-1-yl)-ethanone] yielded an IC50 of 0.101 to 0.5 µM. For `Nc1ncc(-c2ccc3c(c2)CS(=O)(=O)N3)c2cc(C(=O)N3CCC3)ccc12` [Compound 194, (1-amino-4-(2,2-dioxido-1,3-dihydrobenzo[c]isothiazol-5-yl)isoquinolin-6-yl)(azetidin-1-yl)methanone], the IC50 was less than 0.01 µM. `COC1CN(C(=O)c2ccc3cncc(-c4ccc5c(c4)CCC(=O)N5C)c3c2)C1` [Compound 155, 6-[6-(3-Methoxy-azetidine-1-carbonyl)-isoquinolin-4-yl]-1-methyl-3,4-dihydro-1H-quinolin-2-one] gave an IC50 of 0.01 to 0.1 µM. In the case of `CC(C)(O)Cn1cc(-c2ccc(-c3cncc4ccc(C(=O)N5CCOCC5)cc34)cc2)cn1` [Compound 135], the IC50 is reported as 0.01 to 0.1 µM. `Cn1cc(-c2ccc(-c3c(Cl)ncc4ccc(C(N)=O)nc34)cc2)cn1` [Compound 66, 7-Chloro-8-(4-(1-methyl-1H-pyrazol-4-yl)phenyl)-1,6-naphthyridine-2-carboxamide] gave an IC50 of 0.101 to 0.5 µM. Molecule `COCCn1cc(-c2ccc(-c3cncc4ccc(NS(C)(=O)=O)cc34)cc2)cn1` [Compound 166, N-(4-(4-(1-(2-methoxyethyl)-1H-pyrazol-4-yl)phenyl)isoquinolin-6-yl)methanesulfonamide] has an IC50 of less than 0.01 µM. In the case of `Cn1cc(-c2ccc(-c3cncc4ccc(C(=O)N5CCC(F)(F)CC5)nc34)cc2)cn1` [Compound 35, (4,4-difluoropiperidin-1-yl)(8-(4-(1-methyl-1H-pyrazol-4-yl)phenyl)-1,6-naphthyridin-2-yl)methanone], the IC50 is reported as less than 0.01 µM. For `Cn1cc(-c2ccc(-c3c(Cl)ncc4ccc(C(=N)N)nc34)cc2)cn1` [Compound 68, 7-chloro-8-(4-(1-methyl-1H-pyrazol-4-yl)phenyl)-1,6-naphthyridine-2-carboximidamide], the IC50 was 0.101 to 0.5 µM. In the case of `O=C(c1ccc2cncc(Br)c2n1)N1CCC[C@H]1c1ccc(Cl)cc1` [Compound 34, (S)-(8-bromo-1,6-naphthyridin-2-yl)(2-(4-chlorophenyl)pyrrolidin-1-yl)methanone], the IC50 is reported as less than 0.01 µM. `CN1c2ccc(-c3cncc4ccc(-c5nccn5C)cc34)cc2CS1(=O)=O` [Compound 93, 1-methyl-5-(6-(1-methyl-1H-imidazol-2-yl)isoquinolin-4-yl)-1,3-dihydrobenzo[c]isothiazole 2,2-dioxide] was tested, and the IC50 was less than 0.01 µM. For `CC(C)(O)Cn1cc(-c2ccc(-c3cncc4ccc(C(N)=O)cc34)cc2)cn1` [Compound 97, 4-(4-(1-(2-hydroxy-2-methylpropyl)-1H-pyrazol-4-yl)phenyl)isoquinoline-6-carboxamide], the IC50 was less than 0.01 µM. For `C[C@@H](NC(=O)c1ccc2cncc(-c3ccc(-c4cnn(C)c4)cc3)c2n1)c1ccccc1` [Compound 24, (R)-8-(4-(1-methyl-1H-pyrazol-4-yl)phenyl)-N-(1-phenylethyl)-1,6-naphthyridine-2-carboxamide], the IC50 was less than 0.01 µM. `Cn1cc(-c2ccc(-c3cncc4ccc(C#N)cc34)cc2)cn1` [Compound 118, 4-(4-(1-methyl-1H-pyrazol-4-yl)phenyl)isoquinoline-6-carbonitrile] was tested, and the IC50 was 0.01 to 0.1 µM. For `Cc1cc(-c2cnn(C)c2)ccc1-c1cncc2ccc(C(N)=O)nc12` [Compound 19, 8-(2-methyl-4-(1-methyl-1H-pyrazol-4-yl)phenyl)-1,6-naphthyridine-2-carboxamide], the IC50 was less than 0.01 µM. Molecule `O=C(c1ccc2cncc(Br)c2n1)N1CCC[C@H]1c1ccc(F)cc1` [Compound 90, (S)-(8-bromo-1,6-naphthyridin-2-yl)(2-(4-fluorophenyl)pyrrolidin-1-yl)methanone] has an IC50 of 0.01 to 0.1 µM.
